Measurements from patent US12642769B2, “Delivery carrier into cell” (Kabusikikaisya ITO, priority 2019, dated 2026).
Where two headings read alike, the source gives them in different places.

Columns and labels:
[1] = concentration in the formulation increased to 1%
[2] = system: normal human epidermal fibroblasts; assay: cell uptake of Rhodamine B from temperature-responsive liposome carriers with different vitamin derivatives; type: cell-based; conditions: EPC-added groups set to 100%, liposome carrier with DOPEMP (NIPAA/DMAPAA 5%) Cop, rhodamine 1 μM, 35° C. 1 hour, 40° C. 20 min
Method: The total amount of the next lipid was 20 mg, the molar ratio of (lipid 1,2-diore oil-3-trimethylammonium propane):(total weight of lamella-forming surfactant diore oil phosphatidylethanolamine and DOPEMP (NIPAA/DMAPAA 5%) Cop) was 3:7. Each was dissolved in chloroform. Further, the fluorescent dye Rhodamine B (1 mg) was added and dissolved. The lower limit critical dissolution temperature of DOPEMP (NIPAA/DMAPAA 5%) Cop used in this experiment in water was 40° C. The molar ratio of (dioleoylphosphatidylethanolamine: DOPEMP (NIPAA/DMAPAA) Cop.) added by total weight was 6.5:0.5.
The solution was transferred to an eggplant flask and the solvent was blown off by an evaporator to prepare a lipid film. EPC, APPS, APS and AA (ascorbic acid), which are […] of Vitamin derivatives having different ATG activity and CTS activity (hereinafter abbreviated as ATG-CTS activity), were prepared. To this lipid film, EPC, APPS, APS and AA (5 mg each) dissolved in PBS (1 ml) were added. The lipid film was hydrated and then dispersed by vortexing. After that, sonication was performed for 30 minutes in an ultrasonic bath to reduce the size of the liposome, and then the liposome was passed through a 200 nm filter using an extruder to adjust the size of the liposome. The average particle size of the examples and comparative examples was 111 nm±10 nm. Then, the liposomes were separated and purified by gel filtration. By the above method, a Delivery carrier into cell of the present invention containing an ATG-CTS activator, a temperature-responsive polymer and a hydrocarbon was prepared.
Next, normal human epidermal fibroblasts were cultured in DMEM (low glucose) containing 5% FBS for 24 hours at 37° C. at a density of 5×10^5 cell/well in 6-well plates, and then the medium containing four delivery carrier into the cell (added to achieve a final rhodamine concentration of 1 μM), including the embodiments and comparative examples prepared as described above, was exchanged for each medium and cultured at 35° C. for 1 hour. After that, it was incubated at 40° C. for 20 min, and then at 35° C. for 1 h. It was then washed five times with PBS and immobilized with 4% paraformaldehyde phosphate buffer solution for 20 min, washed twice with PBS again, and the relative concentration of the fluorescent material taken up into the cell was determined by measuring the fluorescence intensity with a fluorescent microplate reader. cell of delivery carrier into the cell without vitamin derivatives were also cultured in the same way as additive-free controls and the fluorescence intensity was measured.

[3] = type: physicochemical; conditions: for Remaining rate: buffer; for Evaluation results: 0.02 mol/L in purified water, 50° C., one month
Method: APS, APPS, and EPC so that the concentration of each ascorbate derivative is 0.02 mol/L. Dissolve them in purified water and store them at 50° C. for one month to determine their potency in a high performance liquid The starting titers of each substance were measured by chromatography, and the results after one month were used as the starting titer of 100%. If more than 95% of the result was remaining in the material, it is ∘, and if less than 95% or more than 80% of the result was less than 95%, it is […]. […] Sodium ascorbic acid-2-phosphate: APS; Sodium ascorbic acid-2-phosphate-6-palmitate 3: APPS; Potassium tocopheryl ascorbic acid-2-phosphate: EPC; ascorbic acid: AA.

[4] = type: physicochemical; conditions: for Remaining rate: buffer; for Evaluation results: 0.5% by weight in purified water, defoaming time
Method: The ascorbic acid derivatives of APS, APPS, EPC, and AA were dissolved in purified water at a concentration of 0.5% by weight, and the time to defoam the bubbles was measured with a sponge under the same conditions. The results are shown in Table 14, where the defoaming time of the APPS with the longest defoaming time was set to 100% and the defoaming time of each was calculated as a percentage, with 90% or more being considered O (best), 80% or more to 90% or less being considered B (good), and 80% or less being considered X (poor). Description of abbreviations: ascorbic acid-2-phosphateNa:APS, ascorbic acid-2-phosphate-6-palmitate3Na:APPS, ascorbic acid-2-tocopheryl potassium:EPC, ascorbic acid:AA.

[5] = system: normal human epidermal fibroblasts; assay: cell uptake of rhodamine B from carriers without stimulus-responsive polymers; type: cell-based; conditions: EPC set at 100%; carrier without stimulus-responsive polymers; vitamin derivative 200 μM; 37° C. 1 hour
Method: Create a Delivery carrier into cell in a comparison experiment To investigate the effects of vitamin derivatives with different ATG-CTS activities on cell uptake, the following experiments were performed on delivery carrier into the cell without stimulus-responsive polymers. Six g of glycerin, 1 g of sodium cocoyl glutamate, and 1 g each of three vitamin derivatives (PA, APPS, and EPC) with different ATG-CTS activities were mixed with an electric hand mixer, and 0.1 g of rhodamine B, a fluorescent dye, was added to 20 g of jojoba oil and stirred for 20 minutes. To this, PBS was added to 100 g and stirred for 10 minutes with an electric hand mixer to prevent foaming. 3 types of cell carriers were obtained by completely dispersing them. A Delivery carrier into cell of vitamin derivative-free was also created using the same method as an additive-free control.
Normal human epidermal fibroblasts were incubated in DMEM (low glucose) containing 5% FBS at a density of 5×10^5 cell/well at 37° C. for 24 hours in 6-well plates, and then the medium containing the three delivery carrier into the cell of the invention (final concentration of PA, APPS, and EPC was added to 200 μM each) was replaced with the medium prepared as described above and incubated at 37° C. for 1 hour. Then, the cell were washed five times with PBS and immobilized with 4% paraformaldehyde phosphate buffer solution for 20 min, washed twice with PBS again, and the relative concentration of the fluorescent material taken up into the cell was determined by measuring the fluorescence intensity at the excitation wavelength of 555 (nm) and the fluorescence wavelength of 580 (nm) with a fluorescent microplate reader. cell of delivery carrier into the cell without vitamin derivatives were also cultured in the same way as additive-free controls and the fluorescence intensity was measured.

[6] = lower critical dissolution temperature in water; type: physicochemical
Method: The lower critical dissolution temperature of the temperature-stimuli-responsive polymer-containing molecules in the present invention in water should be between a temperature close to body temperature and 70° C., which is the maximum temperature for carrier transportation in summer during product distribution (e.g., 35.0 to 70.0° C.). On the other hand, for the temperature-responsive polymer of the present invention, even if the lower critical dissolution temperature is near body temperature, it is easier to suppress cell death after delivery into cells if the temperature is as high as possible. […] In the present invention, the lower critical dissolution temperature of the temperature-responsive polymer in water is measured by differential scanning calorimetry (DSC).
For this reason, the lower critical dissolution temperature of the conventional temperature-stimulus-responsive-polymer containing molecules is preferred to be 37-42° C., which is close to the body temperature. […] In the present invention, the lower critical dissolution temperature of the temperature-stimulus-responsive polymer in water is measured by differential scanning calorimetry (DSC).

HMV-II cell [7] = assay: Cellular damage assessment (Cell Counting Kit-8); type: cell-based; conditions: Cell Counting Kit-8, absorbance at 450 nm
Method: HMV-II cell were seeded at a concentration of 1×10^5 cell/mL in 500 μL/well on a 6-well plate. After incubation for 24 hours, 200 μM of IBM X, a melanin-producing stimulant, was added. APS was added to 100 μM for each pH-responsive delivery carrier into cell of A-3, B-3, C-3, and D-3. 2 hours later, the cell were washed with PBS, 200 μM of IVMX was added again, and incubated for 70 hours. To this, 10 μL of Cell Counting Kit-8 was added, and the cytotoxicity of sample addition was compared by measuring absorbance at 450 nm after 1 h of incubation.

HMV-II cell [8] = assay: Melanin production inhibition test; type: cell-based; conditions: 200 μM, no carrier
Method: Pre-treatment: The following melanin production inhibition tests were performed using A-2, B-2, C-2, and D-2 pH-responsive delivery carrier into the cell (A-3, B-3, C-3, and D-3): HMV-II cell were seeded in 24 well dishes at a concentration of 1×10^5 cell/mL, incubated for 24 hours, and then added 200 μM of IBMX and A-3, B-3, C-3, and D-3 pH-responsive delivery carrier into the cell (A-3, B-3, C-3, and D-3) at an APS concentration of 100 μM. 2 hours later, the cell were washed with PBS, 200 μM of IBMX was added again, and incubated for 70 hours. The cell were then solubilized with 200 μL of NaOH at 1 mol/L, and melanin was extracted and quantified by measuring the absorbance at 405 nm. The melanin production was increased about 3-fold by the addition of IBMX (no carrier for pH-responsive cell delivery). When the amount of melanin produced at this time was assumed to be 100%, the amount of melanin produced by A-3 addition of the invention was 48%, B-3 was 78%, C-3 was 85%, and D-3 was 90%.

CCCCCCCC(=O)OC1=C(OCC(O)CO)C(C(O)CO)OC1=O (stereo not drawn) [OGVC, 3-glyceryl-2-Caprylyl ascorbate]
skin irritation [1]: no skin irritation was observed

O=C1O[C@H]([C@@H](O)CO)C(O)=C1O [AA, ascorbic acid, reference compound]
fluorescence intensity (fluorescent material taken up into the cell) [2]: 52% | Remaining rate ([3]; 1 month, 0.02 mol/L): 56% | Remaining rate [4]: 1%

Cc1c(C)c2c(c(C)c1OP(=O)([O-])OC1=C(O)[C@@H]([C@@H](O)CO)OC1=O)CC[C@@](C)(CCC[C@H](C)CCC[C@H](C)CCCC(C)C)O2.[K+] [EPC, Potassium tocopheryl ascorbic acid-2-phosphate]
fluorescence intensity (fluorescent material taken up into the cell) [2]: 100% | Evaluation results [3]: ○ | Remaining rate [3]: 96% | fluorescence intensity (fluorescent material taken up into the cell) [5]: 100% | Evaluation results [4]: Δ | Remaining rate [4]: 85%

O=C1O[C@H]([C@@H](O)CO)C(O)=C1OP(=O)([O-])[O-].[Na+].[Na+] [APS, Sodium ascorbic acid-2-phosphate]
fluorescence intensity (fluorescent material taken up into the cell) [2]: 49% | Evaluation results [3]: Δ | Remaining rate ([3]; 1 month, 0.02 mol/L): 91% | Remaining rate [4]: 3%

Dioleoylephosphatidylethanolamine mercaptopropionyl (isopropylacrylamide/dimethylaminopropylacrylamide 5%) copolymer [DOPEMP (NIPAA/DMAPAA 5%) Cop]
lower critical dissolution temperature in water [6]: 40 °C

CC(C)Cn1c(=O)n(C)c(=O)c2[nH]cnc21 [IBMX]
cytotoxicity (HMV-II cell [7]): cytotoxicity was confirmed | increase of melanin production (HMV-II cell [8]): about 3 fold

CCCCCCCCCCCCCCCC(=O)OC[C@H](O)[C@H]1OC(=O)C(O)=C1O [PA, ascorbyl palmitate]
fluorescence intensity (fluorescent material taken up into the cell) [5]: 58%

CCCCCCCCCCCCCCCC(=O)OC[C@H](O)C1OC(=O)C(OP(=O)([O-])[O-])=C1[O-].[Na+].[Na+].[Na+] (stereo partly drawn) [APPS, Sodium ascorbic acid-2-phosphate-6-palmitate 3]
fluorescence intensity (fluorescent material taken up into the cell) [2]: 78% | Remaining rate [3]: 78% | fluorescence intensity (fluorescent material taken up into the cell) [5]: 76% | Evaluation results [4]: ○ | Remaining rate [4]: 100%

CCCCCCCC(=O)OC1=C(OCC(O)CO)C(=O)OC1C(O)CO (stereo not drawn) [GOVC, 2-glyceryl-3-Caprylyl ascorbate]
skin irritation [1]: no skin irritation was observed
